In US10040790B2, “Bicyclic heterocycles as FGFR inhibitors” (Incyte Corporation, priority 2013, dated 2018):

Assays:
Format in all cases: biochemical
FGFR2 = FGFR2 (Homo sapiens (Human), UniProt P21802); assay: FGFR Enzymatic Assay (FRET peptide phosphorylation), FGFR2; details: ATP 100 μM, enzyme 0.01 nM
Procedure: (§1) The inhibitor potency of the exemplified compounds was measured in an enzyme assay that measures peptide phosphorylation using FRET measurements to detect product formation. Inhibitors were serially diluted in DMSO and a volume of 0.5 μL was transferred to the wells of a 384-well plate. For FGFR3, a 10 μL volume of FGFR3 enzyme (Millipore) diluted in assay buffer (50 mM HEPES, 10 mM MgCl2, 1 mM EGTA, 0.01% Tween-20, 5 mM DTT, pH 7.5) was added to the plate and pre-incubated for 5-10 minutes. Appropriate controls (enzyme blank and enzyme with no inhibitor) were included on the plate. The assay was initiated by the addition of a 10 μL solution containing biotinylated EQEDEPEGDYFEWLE peptide substrate (SEQ ID NO: 1) and ATP (final concentrations of 500 nM and 140 μM respectively) in assay buffer to the wells. The plate was incubated at 25° C. for 1 hr. The reactions were ended with the addition of 10 μL/well of quench solution (50 mM Tris, 150 mM NaCl, 0.5 mg/mL BSA, pH 7.8; 30 mM EDTA with Perkin Elmer Lance Reagents at 3.75 nM Eu-antibody PY20 and 180 nM APC-Streptavidin). The plate was allowed to equilibrate for ˜1 hr before scanning the wells on a PheraStar plate reader (BMG Labtech).
(§2) FGFR1 and FGFR2 were measured under equivalent conditions with the following changes in enzyme and ATP concentrations: FGFR1, 0.02 nM and 210 μM, respectively and FGFR2, 0.01 nM and 100 μM, respectively. The enzymes were purchased from Millipore or Invitrogen.
(§3) GraphPad prism3 was used to analyze the data. The IC50 values were derived by fitting the data to the equation for a sigmoidal dose-response with a variable slope. Y=Bottom+(Top−Bottom)/(1+10^((Log IC50−X)*HillSlope)) where X is the logarithm of concentration and Y is the response.

FGFR3 = FGFR3 (Homo sapiens (Human), UniProt P22607); assay: FGFR Enzymatic Assay (FRET peptide phosphorylation), FGFR3; details: ATP 140 μM
Procedure: as §1, §3

FGFR1 = FGFR1 (Homo sapiens (Human), UniProt P11362); assay: FGFR Enzymatic Assay (FRET peptide phosphorylation), FGFR1; details: ATP 210 μM, enzyme 0.02 nM
Procedure: as §1, §2, §3

Measured: IC50

Sequence of FGFR1 (P11362 22-822): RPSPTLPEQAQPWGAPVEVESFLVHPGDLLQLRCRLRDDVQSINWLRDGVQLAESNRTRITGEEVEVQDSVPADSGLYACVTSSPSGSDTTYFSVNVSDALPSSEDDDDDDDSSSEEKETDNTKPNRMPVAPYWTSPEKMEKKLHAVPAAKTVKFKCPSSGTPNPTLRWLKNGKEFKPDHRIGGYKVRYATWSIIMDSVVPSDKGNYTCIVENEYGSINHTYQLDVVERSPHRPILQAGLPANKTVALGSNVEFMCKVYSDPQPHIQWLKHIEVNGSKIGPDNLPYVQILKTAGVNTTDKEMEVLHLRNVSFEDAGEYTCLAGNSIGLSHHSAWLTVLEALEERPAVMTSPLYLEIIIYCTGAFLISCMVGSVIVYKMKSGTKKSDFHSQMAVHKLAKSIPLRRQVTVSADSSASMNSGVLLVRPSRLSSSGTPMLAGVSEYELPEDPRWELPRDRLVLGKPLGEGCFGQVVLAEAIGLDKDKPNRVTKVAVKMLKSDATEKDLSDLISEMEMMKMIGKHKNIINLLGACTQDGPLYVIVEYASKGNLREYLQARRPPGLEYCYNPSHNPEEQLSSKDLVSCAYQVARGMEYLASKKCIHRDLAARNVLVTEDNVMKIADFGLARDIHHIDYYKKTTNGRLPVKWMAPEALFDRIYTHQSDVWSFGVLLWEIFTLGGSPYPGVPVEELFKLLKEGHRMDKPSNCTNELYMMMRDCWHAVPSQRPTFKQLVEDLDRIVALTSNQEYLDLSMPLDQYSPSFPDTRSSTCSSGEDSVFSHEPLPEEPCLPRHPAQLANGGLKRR
Sequence of FGFR3 (P22607 23-806): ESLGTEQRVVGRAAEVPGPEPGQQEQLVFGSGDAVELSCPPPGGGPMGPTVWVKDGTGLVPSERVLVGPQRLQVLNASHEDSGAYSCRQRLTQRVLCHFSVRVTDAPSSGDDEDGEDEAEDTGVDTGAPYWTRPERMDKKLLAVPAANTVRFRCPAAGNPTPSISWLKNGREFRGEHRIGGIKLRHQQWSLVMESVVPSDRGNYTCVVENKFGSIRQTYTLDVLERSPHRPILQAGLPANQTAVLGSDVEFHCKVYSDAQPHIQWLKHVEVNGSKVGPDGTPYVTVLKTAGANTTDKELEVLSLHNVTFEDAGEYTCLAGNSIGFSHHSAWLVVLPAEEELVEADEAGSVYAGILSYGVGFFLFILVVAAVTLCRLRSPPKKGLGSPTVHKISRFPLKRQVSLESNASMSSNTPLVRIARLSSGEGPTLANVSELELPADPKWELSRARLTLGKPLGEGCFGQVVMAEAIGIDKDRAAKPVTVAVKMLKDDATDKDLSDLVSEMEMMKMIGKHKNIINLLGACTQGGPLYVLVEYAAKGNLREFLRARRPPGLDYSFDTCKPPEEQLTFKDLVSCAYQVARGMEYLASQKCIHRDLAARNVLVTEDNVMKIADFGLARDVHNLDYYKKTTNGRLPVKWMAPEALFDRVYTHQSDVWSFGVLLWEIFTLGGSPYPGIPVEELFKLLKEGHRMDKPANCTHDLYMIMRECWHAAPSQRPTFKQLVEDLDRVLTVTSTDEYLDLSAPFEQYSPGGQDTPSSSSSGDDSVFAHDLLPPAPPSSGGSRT
Sequence of FGFR2 (P21802 22-821): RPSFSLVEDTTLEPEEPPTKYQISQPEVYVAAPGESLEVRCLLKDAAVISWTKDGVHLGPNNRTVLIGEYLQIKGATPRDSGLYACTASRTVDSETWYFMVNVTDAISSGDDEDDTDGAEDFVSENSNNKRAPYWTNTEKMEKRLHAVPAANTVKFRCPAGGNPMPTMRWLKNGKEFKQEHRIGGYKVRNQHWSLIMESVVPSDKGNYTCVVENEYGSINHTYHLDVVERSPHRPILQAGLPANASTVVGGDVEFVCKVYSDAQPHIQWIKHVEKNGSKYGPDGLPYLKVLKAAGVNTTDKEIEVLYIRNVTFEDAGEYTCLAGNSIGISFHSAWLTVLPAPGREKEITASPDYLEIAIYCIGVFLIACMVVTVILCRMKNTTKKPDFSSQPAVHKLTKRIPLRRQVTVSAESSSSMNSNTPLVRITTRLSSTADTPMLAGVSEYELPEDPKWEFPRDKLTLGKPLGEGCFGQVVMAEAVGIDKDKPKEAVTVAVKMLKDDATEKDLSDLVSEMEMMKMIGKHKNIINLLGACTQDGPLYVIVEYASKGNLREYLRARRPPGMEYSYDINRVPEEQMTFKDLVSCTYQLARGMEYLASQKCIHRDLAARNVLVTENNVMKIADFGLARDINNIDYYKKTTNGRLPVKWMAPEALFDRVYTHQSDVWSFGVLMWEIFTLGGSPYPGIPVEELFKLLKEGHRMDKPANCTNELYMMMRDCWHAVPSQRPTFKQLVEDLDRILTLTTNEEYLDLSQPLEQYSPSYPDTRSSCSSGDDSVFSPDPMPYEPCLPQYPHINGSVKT

COc1cc(OC)c(F)c(N2Cc3cnc(N)c(-c4cn[nH]c4)c3N(C)C2=O)c1F [Example 12, 7-amino-3-(2,6-difluoro-3,5-dimethoxyphenyl)-1-methyl-8-(1H-pyrazol-4-yl)-3,4-dihydro-pyrido[4,3-d]pyrimidin-2(1H)-one]
< 100 nM: all assays above

COc1cc(OC)c(F)c(N2Cc3cnc(N)c(CCc4ccccc4)c3N(C)C2=O)c1F [Example 19, 7-amino-3-(2,6-difluoro-3,5-dimethoxyphenyl)-1-methyl-8-phenylethyl-3,4-dihydropyrido-[4,3-d]pyrimidin-2(1H)-one]
< 100 nM: all assays above

COc1cc(OC)c(F)c(N2Cc3cnc(N)c(C4=CCOCC4)c3N(C)C2=O)c1F [Example 21, 7-amino-3-(2,6-difluoro-3,5-dimethoxyphenyl)-8-(3,6-dihydro-2H-pyran-4-yl)-1-methyl-3,4-dihydropyrido[4,3-d]pyrimidin-2(1H)-one]
< 100 nM: all assays above

COc1cc(OC)c(F)c(N2Cc3cnc(N)c(Oc4ccccc4)c3N(C)C2=O)c1F [Example 7, 7-amino-3-(2,6-difluoro-3,5-dimethoxyphenyl)-1-methyl-8-phenoxy-3,4-dihydropyrido[4,3-d]pyrimidin-2(1H)-one]
< 100 nM: all assays above

CNc1cc2c(cn1)CN(c1c(F)c(OC)cc(OC)c1F)C(=O)C21CC1 [Example 25, 2′-(2,6-difluoro-3,5-dimethoxyphenyl)-6′-(methylamino)-1′,2′-dihydro-3′H-spiro[cyclopropane-1,4′-[2,7]naphthyridin]-3′-one]
< 100 nM: all assays above

COc1cc(OC)c(F)c(N2Cc3cnc(N)c(Cl)c3N(C)C2=O)c1F [Example 54, 7-amino-8-chloro-3-(2,6-difluoro-3,5-dimethoxyphenyl)-1-methyl-3,4-dihydropyrido[4,3-d]pyrimidin-2(1H)-one]
< 100 nM: all assays above

COc1cc(OC)c(F)c(N2Cc3cnc(N)c(C#N)c3N(C)C2=O)c1F [Example 3, 7-amino-3-(2,6-difluoro-3,5-dimethoxyphenyl)-1-methyl-2-oxo-1,2,3,4-tetrahydropyrido-[4,3-d]pyrimidine-8-carbonitrile]
< 100 nM: all assays above

COc1cc(OC)c(F)c(N2Cc3cnc(NC4CCCCC4)cc3C3(CC3)C2=O)c1F [Example 39, 6′-(cyclohexylamino)-2′-(2,6-difluoro-3,5-dimethoxyphenyl)-1′H-spiro[cyclopropane-1,4′-[2,7]naphthyridin]-3′(2′H)-one]
< 100 nM: all assays above

COc1cc(OC)c(F)c(N2Cc3cnc(N)cc3C3(CC3)C2=O)c1F [Example 24, 6′-amino-2′-(2,6-difluoro-3,5-dimethoxyphenyl)-1′H-spiro[cyclopropane-1,4′-[2,7]naphthyridin]-3′(2′H)-one]
< 100 nM: all assays above

COc1cc(OC)c(F)c(N2Cc3cnc(N)c(C#N)c3N(Cc3cnn(C)c3)C2=O)c1F [Example 51, 7-amino-3-(2,6-difluoro-3,5-dimethoxyphenyl)-1-[(1-methyl-1H-pyrazol-4-yl)methyl]-2-oxo-1,2,3,4-tetrahydropyrido[4,3-d]pyrimidine-8-carbonitrile]
< 100 nM: all assays above
